# Source: patent publication US6696491B2, “Treating irritable bowel syndrome or disease” (Meracol Corporation Limited, priority 2000, dated 2004)
# Assays:
# [1] = laboratory experiments; website www.gcinutrients.com; cited from earlier work
# IBS and/or IBD = assay: Trials with a variety of patients using dosage forms of cetyl myristate alone; assay type: in vivo, human
# [2] = tested on: Irritable Bowel Syndrome / chronic diarrhea; assay: Earlier conventional medication of the trial patients (patient history); assay type: in vivo, human; details: for reduction of symptoms: Patient 3, IBS, tried over 40 years before the trial
# Experimental: They were assessed by a gastroenterologist in 1989 and placed on long-term use of Imodium. This was given to reduce the number of bowel motions.
# They also tried Colestid and was told to remain on this indefinitely to reduce their diarrhea.
# Patient 3 was diagnosed with Irritable Bowel Syndrome, and over the next 40 years, tried many different medicines including Colestid sachets, Imodium, Codeine, cholestyramine, and Dicap. […] During this time, patient 3 has been admitted four times to a hospital for acute exacerbations of diarrhea.
# Patient 4 has been diagnosed with irritable Bowel Syndrome for over a year and suffers from an extremely swollen abdomen with constant flatulence and diarrhea. Patient 4 has taken Mucilax, bran and has made major dietary alterations, all with no effect. Further effects of Irritable Bowel Syndrome to patient 4 included exhaustion, with the patient sleeping between 12-15 hours daily.
Compound,anti-arthritic activity [1],relief from the symptoms of IBS and/or IBD (IBS and/or IBD),"reduction of the number of bowel motions ([2]; Patient 1, long-term use from 1989, before the trial)",reduction of symptoms [2]
CCCCCCCCCCCCCCCCOC(=O)CCCCCCCCCCCCC [cetyl myristate],negligible,favorable responses,,
CN(C)C(=O)C(CCN1CCC(O)(c2ccc(Cl)cc2)CC1)(c1ccccc1)c1ccccc1 [Imodium],,,some benefits from this but they did not improve sufficiently,none of the medicines listed were able to reduce the symptoms
cholestyramine,,,,none of the medicines listed were able to reduce the symptoms
COc1ccc2c3c1O[C@H]1[C@@H](O)C=C[C@H]4[C@@H](C2)N(C)CC[C@@]341 [Codeine],,,,none of the medicines listed were able to reduce the symptoms
